Results reported in publication PMC9516332 (Frontiers in Oncology, 2022).
Like-named read-outs stand apart in the source and are kept apart here.

Key:
Assay in all cases: Kinase panel profiling at 1 µmol/L (MSA or IMAP), percentage inhibition
Assay type in all cases: biochemical
[1] = target: panel of 255 wild-type kinases (Homo sapiens, UniProt P07947); conditions: read-out: %-inhibition at 1 µmol/L, YES
[2] = target: panel of 255 wild-type kinases (Homo sapiens, UniProt P09769); conditions: read-out: %-inhibition at 1 µmol/L, FGR
[3] = target: panel of 255 wild-type kinases (Homo sapiens, UniProt P17252); conditions: read-out: %-inhibition at 1 µmol/L, PKCα
[4] = target: T1, panel of 255 wild-type kinases (Homo sapiens, UniProt P51817); conditions: read-out: %-inhibition at 1 µmol/L, PRKX
T1 sequence (P51817 1-358): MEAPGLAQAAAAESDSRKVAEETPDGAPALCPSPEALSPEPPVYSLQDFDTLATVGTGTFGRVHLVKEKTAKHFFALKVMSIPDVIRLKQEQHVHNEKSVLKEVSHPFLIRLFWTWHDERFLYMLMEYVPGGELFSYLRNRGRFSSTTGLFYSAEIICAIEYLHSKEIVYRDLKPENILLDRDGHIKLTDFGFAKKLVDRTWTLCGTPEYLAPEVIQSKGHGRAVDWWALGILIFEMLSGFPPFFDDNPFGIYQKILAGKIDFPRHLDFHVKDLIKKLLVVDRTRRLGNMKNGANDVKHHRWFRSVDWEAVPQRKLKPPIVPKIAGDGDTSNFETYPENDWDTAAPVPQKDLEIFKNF

[5] = target: T2, panel of 255 wild-type kinases (Homo sapiens, UniProt Q13043); conditions: read-out: %-inhibition, MST1
T2 sequence (Q13043 1-487): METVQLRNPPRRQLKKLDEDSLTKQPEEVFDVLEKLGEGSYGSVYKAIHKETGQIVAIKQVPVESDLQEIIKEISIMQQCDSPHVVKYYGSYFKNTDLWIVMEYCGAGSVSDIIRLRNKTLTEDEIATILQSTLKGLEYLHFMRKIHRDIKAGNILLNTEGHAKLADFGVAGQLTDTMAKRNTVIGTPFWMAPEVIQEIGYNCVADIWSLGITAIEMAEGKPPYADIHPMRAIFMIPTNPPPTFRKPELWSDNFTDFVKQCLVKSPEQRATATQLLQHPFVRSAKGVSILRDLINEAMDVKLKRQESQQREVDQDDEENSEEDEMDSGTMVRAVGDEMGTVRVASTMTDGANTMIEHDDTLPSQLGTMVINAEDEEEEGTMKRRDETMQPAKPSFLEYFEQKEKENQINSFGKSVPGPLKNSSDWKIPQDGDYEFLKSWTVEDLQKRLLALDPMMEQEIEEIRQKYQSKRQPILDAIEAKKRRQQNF

[6] = target: panel of 255 wild-type kinases (Homo sapiens, UniProt Q14680); conditions: read-out: %-inhibition, MELK
[7] = target: T3, panel of 255 wild-type kinases (Homo sapiens, UniProt Q16566); conditions: read-out: %-inhibition CaMK4
T3 sequence (Q16566 1-473): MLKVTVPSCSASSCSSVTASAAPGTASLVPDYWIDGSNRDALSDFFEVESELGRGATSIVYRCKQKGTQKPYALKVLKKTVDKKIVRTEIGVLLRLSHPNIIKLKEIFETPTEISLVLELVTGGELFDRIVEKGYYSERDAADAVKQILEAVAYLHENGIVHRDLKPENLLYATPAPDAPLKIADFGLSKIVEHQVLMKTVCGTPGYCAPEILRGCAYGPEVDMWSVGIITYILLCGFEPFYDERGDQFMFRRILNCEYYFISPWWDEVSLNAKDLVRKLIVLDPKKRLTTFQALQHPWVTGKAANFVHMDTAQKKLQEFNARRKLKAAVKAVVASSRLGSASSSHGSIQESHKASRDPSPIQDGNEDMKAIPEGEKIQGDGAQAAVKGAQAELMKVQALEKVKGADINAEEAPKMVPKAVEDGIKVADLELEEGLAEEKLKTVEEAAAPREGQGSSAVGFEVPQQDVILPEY

[8] = target: T4, panel of 255 wild-type kinases (Homo sapiens, UniProt Q9UF33); conditions: read-out: %-inhibition at 1 µmol/L, EPHA6
T4 sequence (Q9UF33 23-1036): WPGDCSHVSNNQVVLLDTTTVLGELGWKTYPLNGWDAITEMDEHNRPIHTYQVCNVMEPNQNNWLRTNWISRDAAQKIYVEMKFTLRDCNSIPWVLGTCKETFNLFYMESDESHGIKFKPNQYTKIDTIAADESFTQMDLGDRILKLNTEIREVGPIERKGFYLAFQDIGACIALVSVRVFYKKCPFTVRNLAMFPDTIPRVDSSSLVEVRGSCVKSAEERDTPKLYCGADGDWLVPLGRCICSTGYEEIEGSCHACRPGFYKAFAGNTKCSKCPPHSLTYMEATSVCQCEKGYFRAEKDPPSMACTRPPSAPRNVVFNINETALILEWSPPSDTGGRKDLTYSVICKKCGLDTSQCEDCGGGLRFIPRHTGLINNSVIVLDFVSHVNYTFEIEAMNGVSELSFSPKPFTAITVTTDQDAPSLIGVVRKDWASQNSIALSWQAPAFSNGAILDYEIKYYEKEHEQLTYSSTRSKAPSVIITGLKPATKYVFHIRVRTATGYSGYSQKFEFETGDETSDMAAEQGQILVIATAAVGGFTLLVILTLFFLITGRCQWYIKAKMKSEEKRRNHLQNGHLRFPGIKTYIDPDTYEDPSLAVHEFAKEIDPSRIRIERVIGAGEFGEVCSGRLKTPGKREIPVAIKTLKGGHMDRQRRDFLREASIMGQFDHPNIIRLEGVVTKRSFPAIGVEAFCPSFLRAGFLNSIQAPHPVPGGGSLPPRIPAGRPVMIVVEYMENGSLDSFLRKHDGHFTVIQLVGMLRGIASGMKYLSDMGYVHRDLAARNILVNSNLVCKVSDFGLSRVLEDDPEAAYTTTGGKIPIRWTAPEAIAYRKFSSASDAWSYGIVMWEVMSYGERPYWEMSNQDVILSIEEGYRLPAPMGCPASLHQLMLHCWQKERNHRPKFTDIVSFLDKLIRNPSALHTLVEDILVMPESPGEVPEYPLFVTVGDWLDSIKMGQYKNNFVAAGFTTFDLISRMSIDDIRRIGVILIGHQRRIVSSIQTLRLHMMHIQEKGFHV

[9] = kinase YES, 1 µmol/L single concentration
[10] = kinase FGR, 1 µmol/L single concentration
[11] = kinase PKCα, 1 µmol/L single concentration
[12] = kinase PRKX, 1 µmol/L single concentration
[13] = MST1, 1 µmol/L single concentration
[14] = MELK, 1 µmol/L single concentration
[15] = CaMK4 kinase assay, 1 µmol/L single concentration
[16] = kinase EPHA6, 1 µmol/L single concentration

| Compound | inhibition at 1 µM [1, 9] | inhibition at 1 µM [2, 10] | inhibition at 1 µM [3, 11] | inhibition at 1 µM [4, 12] | inhibition at 1 µM [5, 13] | inhibition at 1 µM [6, 14] | inhibition at 1 µM [7, 15] | inhibition at 1 µM [8, 16] | inhibition at 1 µM [1] | inhibition at 1 µM [2] | inhibition at 1 µM [3] | inhibition at 1 µM [4] | inhibition at 1 µM [5] | inhibition at 1 µM [6] | inhibition at 1 µM [7] | inhibition at 1 µM [8] |
| --- | --- | --- | --- | --- | --- | --- | --- | --- | --- | --- | --- | --- | --- | --- | --- | --- |
| Cc1nc(NC(=O)N2CCC[C@H]2C(N)=O)sc1-c1ccnc(C(C)(C)C(F)(F)F)c1 [alpelisib] | -4% | 2% | 1.21% | -4.49% | 5% | 0.22% | -7% | 5.35% |  |  |  |  |  |  |  |  |
| Cn1cc(-c2cc3c(N4CCN(c5ncc([C@@](C)(N)c6ccc(F)cc6)cn5)CC4)ncnn3c2)cn1 [avapritinib] | 83% | 66% | 5% | 37% | 5.32% | 9% | -0.588% | 7% |  |  |  |  |  |  |  |  |
| Cn1cnc2c(F)c(Nc3ccc(Br)cc3F)c(C(=O)NOCCO)cc21 [binimetinib] | 2.16% | 0.0227% | -0.116% | 2.57% | -6.46% | -1.8% | 2.67% | 2.34% |  |  |  |  |  |  |  |  |
| CNC(=O)c1ccc(-c2cnc3ncc(Cc4ccc5ncccc5c4)n3n2)cc1F [capmatinib] |  |  |  |  |  |  |  |  | 1.32% | -1.79% | -3.51% | -5.65% | -2% | -4% | -2.8% | -2% |
| COc1cc2ncnc(Nc3ccc(F)c(Cl)c3)c2cc1NC(=O)/C=C/CN1CCCCC1 [dacomitinib] |  | 58% | -4.53% | 0.677% | 2.73% | 15% | 2.44% | 98% |  |  |  |  |  |  |  |  |
| C[C@H](Nc1ncnc2nc[nH]c12)c1cc2cccc(Cl)c2c(=O)n1-c1ccccc1 [duvelisib] | -2.44% | 3.24% | 0.321% | 0.385% | 10% | 2.43% | -3% | 5.71% |  |  |  |  |  |  |  |  |
| COC(=O)N[C@@H](C)CNc1nccc(-c2cn(C(C)C)nc2-c2cc(Cl)cc(NS(C)(=O)=O)c2F)n1 [encorafenib] | 3.55% | 1.37% | 5% | 1.82% | 0.835% | 4.48% | 4.35% | 17% |  |  |  |  |  |  |  |  |
| CN1CCN(c2ccc(C(=O)Nc3n[nH]c4ccc(Cc5cc(F)cc(F)c5)cc34)c(NC3CCOCC3)c2)CC1 [entrectinib] | 98% | 95% | 20% | 2.19% | 92% |  | 1.07% | 44% |  |  |  |  |  |  |  |  |
| CCc1nc(C(N)=O)c(Nc2ccc(N3CCC(N4CCN(C)CC4)CC3)c(OC)c2)nc1NC1CCOCC1 [gilteritinib] | 98% | 96% |  | 4% | 92% | 75% | 18% | 94% |  |  |  |  |  |  |  |  |
| CCN1CCN(c2ccc(Nc3cc(N(C)C(=O)Nc4c(Cl)c(OC)cc(OC)c4Cl)ncn3)cc2)CC1 [infigratinib] | 77% | 46% | -4% | -3.53% | 1.11% | -2% | 2.47% | 28% |  |  |  |  |  |  |  |  |
| O=C(Nc1cnn2ccc(N3CCC[C@@H]3c3cc(F)ccc3F)nc12)N1CC[C@H](O)C1 [larotrectinib] | -2.66% | 2.55% | -3% | 0.637% | -4% | -1.52% | 0.861% | -0.585% |  |  |  |  |  |  |  |  |
| C[C@H]1Oc2cc(cnc2N)-c2c(nn(C)c2C#N)CN(C)C(=O)c2ccc(F)cc21 [lorlatinib] | 28% | 22% | 12% | 3.38% | 28% | 4% | 1.56% | 76% |  |  |  |  |  |  |  |  |
| CCN1C(=O)N(c2c(F)c(OC)cc(OC)c2F)Cc2cnc3[nH]c(CN4CCOCC4)cc3c21 [pemigatinib] | 24% | 17% | -1.62% | -1.75% | 6% | 0.738% | 1.2% | -3% |  |  |  |  |  |  |  |  |
| FC(F)(F)c1ccc(CNc2ccc(Cc3c[nH]c4ncc(Cl)cc34)cn2)cn1 [pexidartinib] | 16% | 5.64% | -8% | 15% | 25% | 3% | 4% | 18% |  |  |  |  |  |  |  |  |
| C=CC(=O)N1CCC([C@@H]2CCNc3c(C(N)=O)c(-c4ccc(Oc5ccccc5)cc4)nn32)CC1 [zanubrutinib] |  | 37% | -2.63% | -1% | -3% | -0.631% | 0.733% | 14% |  |  |  |  |  |  |  |  |
